# Results reported in patent US8357694B2, “Substituted 5,6-dihydro-6-phenylbenzo[F]isoquinolin-2-amine compounds” (ArQule, Inc., priority 2008, dated 2013).
row,SMILES,melting point [°C]
1,"CC(C)(C)OC(=O)N1CCC(Nc2ncc3c(n2)-c2ccccc2C(c2ccc(Cl)c(Cl)c2)C3)CC1 (stereo not shown) [Example 19, tert-butyl 4-(6-(3,4-dichlorophenyl)-5,6-dihydrobenzo[h]quinazolin-2-ylamino)piperidine-1-carboxylate]",94 to 96
2,"CC(C)c1ccc2c(c1)C(c1ccc(Cl)c(Cl)c1)Cc1cnc(N)nc1-2 (stereo not shown) [Example 20, 6-(3,4-dichlorophenyl)-8-isopropyl-5,6-dihydrobenzo[h]quinazolin-2-amine]",174 to 176
3,"Nc1ncc2c(n1)-c1ccc(-c3ccccc3)cc1C(c1ccc(Cl)c(Cl)c1)C2 (stereo not shown) [Example 21, 6-(3,4-dichlorophenyl)-8-phenyl-5,6-dihydrobenzo[h]quinazolin-2-amine]",186 to 187
4,"CCCCN(C)CCc1ccc(Nc2ncc3c(n2)-c2ccccc2C(c2cccc(Br)c2)C3)cc1 (stereo not shown) [Example 26, 6-(3-bromophenyl)-N-(4-(2-(butyl(methyl)amino)ethyl)phenyl)-5,6-dihydrobenzo[h]quinazolin-2-amine]",66 to 68
5,"CN1CCN(CCc2ccc(Nc3ncc4c(n3)-c3ccccc3C(c3cccc(Br)c3)C4)cc2)CC1 (stereo not shown) [Example 28, 6-(3-bromophenyl)-N-(4-(2-(4-methylpiperazin-1-yl)ethyl)phenyl)-5,6-dihydrobenzo[h]quinazolin-2-amine]",100 to 102
6,"Brc1cccc(C2Cc3cnc(Nc4ccc(CCN5CCOCC5)cc4)nc3-c3ccccc32)c1 (stereo not shown) [Example 31, 6-(3-bromophenyl)-N-(4-(2-morpholinoethyl)phenyl)-5,6-dihydrobenzo[h]quinazolin-2-amine]",86 to 88
7,"COCCN1CCN(CCc2ccc(Nc3ncc4c(n3)-c3ccccc3C(c3cccc(Br)c3)C4)cc2)CC1 (stereo not shown) [Example 32, 6-(3-bromophenyl)-N-(4-(2-(4-(2-methoxyethyl)piperazin-1-yl)ethyl)phenyl)-5,6-dihydrobenzo[h]quinazolin-2-amine]",105 to 107
8,"COCCN1CCN(CCc2ccc(Nc3ncc4c(n3)-c3ccccc3C(c3ccc(Cl)c(Cl)c3)C4)cc2)CC1 (stereo not shown) [Example 33, 6-(3,4-dichlorophenyl)-N-(4-(2-(4-(2-methoxyethyl)piperazin-1-yl)ethyl)phenyl)-5,6-dihydrobenzo[h]quinazolin-2-amine]",121 to 122
9,"CN(CCc1ccccc1)CCc1ccc(Nc2ncc3c(n2)-c2ccccc2C(c2cccc(Br)c2)C3)cc1 (stereo not shown) [Example 37, 6-(3-bromophenyl)-N-(4-(2-(methyl(phenethyl)amino)ethyl)phenyl)-5,6-dihydrobenzo[h]quinazolin-2-amine]",80 to 82
10,"CN(C)CCN(CCc1ccc(Nc2ncc3c(n2)-c2ccccc2C(c2cccc(Br)c2)C3)cc1)Cc1ccccc1 (stereo not shown) [Example 38, N^1-benzyl-N-1-(4-(6-(3-bromophenyl)-5,6-dihydrobenzo[h]quinazolin-2-ylamino)phenethyl)-N^2,N^2-dimethylethane-1,2-diamine]",68 to 70
11,"CC(O)CN(CCc1ccc(Nc2ncc3c(n2)-c2ccccc2C(c2cccc(Br)c2)C3)cc1)Cc1ccccc1 (stereo not shown) [Example 39, 1-(benzyl(4-(6-(3-bromophenyl)-5,6-dihydrobenzo[h]quinazolin-2-ylamino)phenethyl)amino)propan-2-ol]",90 to 92
12,"Brc1cccc(C2Cc3cnc(Nc4ccc(CCN5CCN(c6ccccc6)CC5)cc4)nc3-c3ccccc32)c1 (stereo not shown) [Example 43, 6-(3-bromophenyl)-N-(4-(2-(4-phenylpiperazin-1-yl)ethyl)phenyl)-5,6-dihydrobenzo[h]quinazolin-2-amine]",113 to 115

# Results, then the molecule that gave them:
row,melting point [°C],SMILES
1,60 to 62,"Fc1ccc(C2Cc3cnc(NCCCN4CCCCC4)nc3-c3ccccc32)cc1 (stereo not shown) [Example 16, 6-(4-fluorophenyl)-N-(3-(piperidin-1-yl)propyl)-5,6-dihydrobenzo[h]quinazolin-2-amine]"
2,163 to 164,"OCCc1ccc(Nc2ncc3c(n2)-c2ccccc2C(c2ccc(Cl)cc2)C3)cc1 (stereo not shown) [Example 22, 2-(4-(6-(4-chlorophenyl)-5,6-dihydrobenzo[h]quinazolin-2-ylamino)phenyl)ethanol]"
3,170 to 172,"OCCc1ccc(Nc2ncc3c(n2)-c2ccccc2C(c2ccc(F)c(F)c2)C3)cc1 (stereo not shown) [Example 23, 2-(4-(6-(3,4-difluorophenyl)-5,6-dihydrobenzo[h]quinazolin-2-ylamino)phenyl)ethanol]"
4,215 to 217,"CN(CCc1ccc(Nc2ncc3c(n2)-c2ccccc2C(c2cccc(Br)c2)C3)cc1)C1CCCCC1 (stereo not shown) [Example 29, 6-(3-bromophenyl)-N-(4-(2-(cyclohexyl(methyl)amino)ethyl)phenyl)-5,6-dihydrobenzo[h]quinazolin-2-amine]"
5,130 to 131,"CN(CCc1ccc(Nc2ncc3c(n2)-c2ccccc2C(c2ccc(Cl)c(Cl)c2)C3)cc1)C1CCCCC1 (stereo not shown) [Example 30, N-(4-(2-(cyclohexyl(methyl)amino)ethyl)phenyl)-6-(3,4-dichlorophenyl)-5,6-dihydrobenzo[h]quinazolin-2-amine]"
6,115 to 117,"NCCc1ccc(Nc2ncc3c(n2)-c2ccccc2C(c2cccc(Br)c2)C3)cc1 (stereo not shown) [Example 34, N-(4-(2-aminoethyl)phenyl)-6-(3-bromophenyl)-5,6-dihydrobenzo[h]quinazolin-2-amine]"
7,92 to 94,"Brc1cccc(C2Cc3cnc(Nc4ccc(CCNc5ccccc5)cc4)nc3-c3ccccc32)c1 (stereo not shown) [Example 35, 6-(3-bromophenyl)-N-(4-(2-(phenylamino)ethyl)phenyl)-5,6-dihydrobenzo[h]quinazolin-2-amine]"
8,75 to 77,"CN(CCc1ccc(Nc2ncc3c(n2)-c2ccccc2C(c2cccc(Br)c2)C3)cc1)CCc1ccccn1 (stereo not shown) [Example 36, 6-(3-bromophenyl)-N-(4-(2-(methyl(2-(pyridin-2-yl)ethyl)amino)ethyl)phenyl)-5,6-dihydrobenzo[h]quinazolin-2-amine]"
9,67 to 69,"CCN(CCc1ccc(Nc2ncc3c(n2)-c2ccccc2C(c2cccc(Br)c2)C3)cc1)C(C)C (stereo not shown) [Example 40, 6-(3-bromophenyl)-N-(4-(2-(ethyl(isopropyl)amino)ethyl)phenyl)-5,6-dihydrobenzo[h]quinazolin-2-amine]"
10,88 to 90,"CCN(CCc1ccc(Nc2ncc3c(n2)-c2ccccc2C(c2cccc(Br)c2)C3)cc1)Cc1ccncc1 (stereo not shown) [Example 41, 6-(3-bromophenyl)-N-(4-(2-(ethyl(pyridin-4-ylmethyl)amino)ethyl)phenyl)-5,6-dihydrobenzo[h]quinazolin-2-amine]"
11,58 to 60,"COCCN(CCOC)CCc1ccc(Nc2ncc3c(n2)-c2ccccc2C(c2cccc(Br)c2)C3)cc1 (stereo not shown) [Example 42, N-(4-(2-(bis(2-methoxyethyl)amino)ethyl)phenyl)-6-(3-bromophenyl)-5,6-dihydrobenzo[h]quinazolin-2-amine]"
12,75 to 77,"CN(C)CCNCCc1ccc(Nc2ncc3c(n2)-c2ccccc2C(c2cccc(Br)c2)C3)cc1 (stereo not shown) [Example 44, N^1-(4-(6-(3-bromophenyl)-5,6-dihydrobenzo[h]quinazolin-2-ylamino)phenethyl)-N^2,N^2-dimethylethane-1,2-diamine]"
13,85 to 87,"Brc1cccc(C2Cc3cnc(Nc4ccc(CCNCCN5CCOCC5)cc4)nc3-c3ccccc32)c1 (stereo not shown) [Example 45, 6-(3-bromophenyl)-N-(4-(2-(2-morpholinoethylamino)ethyl)phenyl)-5,6-dihydrobenzo[h]quinazolin-2-amine]"
